# Laboratory results reported in patent US8906868B2, “Aminoglycoside derivatives” (Rempex Pharmaceuticals, Inc., priority 2010, dated 2014).
# Where two headings read alike, the source gives them in different places.
# Columns and labels:
# [1] = test system: ECM6003 rmtB; experiment: microbe, parasite or virus in culture; assay type: cell-based, Escherichia coli; conditions: Escherichia coli; Table 3; read-out: Compound MIC on Bacterial Strains: ECM6003 rmtB
# How it was run: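 Broth microdilution per CLSI M7-A7 in cation-adjusted Mueller Hinton broth with 2-fold serial dilutions and 5×10^5 CFU/ml inoculum. Incubated 18 hours at 35 °C; MIC read by turbidity at 600 nm and confirmed visually.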
# [2] = test system: PAM3073 aac(6′)-I; experiment: microbe, parasite or virus in culture; assay type: cell-based, Pseudomonas aeruginosa; conditions: Pseudomonas aeruginosa, Table 5; read-out: Compound MIC on Bacterial Strains: Pseudomonas aeruginosa PAM3073 aac(6′)-I
# How it was run: (§1)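 CLSI broth microdilution in CaMHB; 2-fold serial dilutions; 5×10^5 CFU/ml final inoculum; 18 h, 35° C; OD600 turbidity plus visual check.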
# [3] = test system: PAM3072 aac(6′)-II; experiment: microbe, parasite or virus in culture; assay type: cell-based, Pseudomonas aeruginosa; conditions: Pseudomonas aeruginosa, Table 5; read-out: Compound MIC on Bacterial Strains: Pseudomonas aeruginosa PAM3072 aac(6′)-II
# How it was run: as §1
# [4] = test system: Staphylococcus aureus (ATCC 29213); experiment: MIC, broth microdilution; conditions: Staphylococcus aureus
# [5] = test system: Sa 287 aac(6′) + aph(2″); experiment: microbe, parasite or virus in culture; assay type: cell-based, Staphylococcus aureus; conditions: Staphylococcus aureus, 18 h; Table 5; read-out: Compound MIC on Bacterial Strains: Staphylococcus aureus Sa 287 aac(6′) + aph(2″)
# Method: To compare microbiological activity of the test compounds, minimum inhibitory concentrations (MIC.s) were determined. Antibiotic MICs were obtained using the broth microdilution method according to Clinical and Laboratory Standards Institute (CLSI) approved guidelines (Methods for dilution antimicrobial susceptibility tests for bacteria that grow aerobically; approved standard—7th ed. CLSI document M7-A7. Clinical and Laboratory Standards Institute, Wayne, Pa., incorporated herein by reference in its entirety). Antibiotics were dissolved as specified by CLSI (Performance standards for antimicrobial susceptibility testing; Seventeenth informational supplement. CLSI document M100-S17. Clinical and Laboratory Standards Institute, Wayne, Pa., incorporated herein by reference in its entirety), and were serially diluted 2-fold in cation adjusted Mueller Hinton Broth (CaMHB) at 2× concentration. Bacterial inoculums were prepared in CaMHB by suspension of a colony from an agar plate that was prepared the previous day to obtain a final concentration of 5×10^5CFU/ml. The plates were incubated for 18 hours at 35° C. […] MIC.s were determined by reading the turbidity of plate wells using a SpectraMax Plus384 plate reader (Molecular Devices, Sunnyvale, Calif., USA) at 600 nm and were confirmed by visual inspection.
# [6] = test system: Escherichia coli (ATCC 25922); experiment: MIC, broth microdilution; conditions: Escherichia coli
# [7] = test system: ECM6007 aac(6′) + aph(2″); experiment: microbe, parasite or virus in culture; assay type: cell-based, Escherichia coli; conditions: Escherichia coli, 18 h; Table 4; read-out: Compound MIC on Bacterial Strains: Escherichia coli ECM6007 aac(6′) + aph(2″)
# How it was run: as §1
# [8] = test system: EC1001 acc(6′)-Ib; experiment: microbe, parasite or virus in culture; assay type: cell-based, Escherichia coli; conditions: Escherichia coli; Table 4; read-out: Compound MIC on Bacterial Strains: Escherichia coli EC1001 acc(6′)-Ib
# How it was run: as §1
# [9] = test system: rats; experiment: Nephrotoxicity of test compounds in rats; conditions: once daily subcutaneous
# [10] = test system: ACM1006 acc(6′)-Ib; experiment: microbe, parasite or virus in culture; assay type: cell-based, Acinetobacter baumannii; conditions: Acinetobacter baumannii; Table 4; read-out: Compound MIC on Bacterial Strains: Acinetobacter baumannii ACM1006 acc(6′)-Ib
# How it was run: as §1
# [11] = test system: ACM1005 ATCC 19004; experiment: MIC, broth microdilution; assay type: cell-based, Acinetobacter baumannii; conditions: Acinetobacter baumannii, ATCC19004; Table 4; read-out: Compound MIC on Bacterial Strains: Acinetobacter baumannii ACM1005 ATCC 19004
# How it was run: as §1
# [12] = test system: EC1002 aph(3′)-IV; experiment: organism not typed; assay type: cell-based; conditions: read-out: Compound MIC on Bacterial Strains: EC1002 aph(3′)-IV
# How it was run: (§2)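 CLSI broth microdilution; CaMHB; 2-fold dilutions; 5×10^5 CFU/ml; 18 h, 35° C; OD600 turbidity plus visual check for MIC.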
# [13] = test system: Pseudomonas aeruginosa (ATCC 27853); experiment: MIC, broth microdilution; conditions: Pseudomonas aeruginosa
# [14] = test system: Klebsiella pneumonia (ATCC 43816); experiment: MIC, broth microdilution; conditions: Klebsiella pneumoniae, ATCC43816, read-out: Compound MIC on Bacterial Strains: K. pneumonia ATCC 43816
# [15] = test system: ECM6006 aph(3′)-III; experiment: microbe, parasite or virus in culture; assay type: cell-based, Escherichia coli; conditions: Escherichia coli, read-out: Compound MIC on Bacterial Strains: ECM6006 aph(3′)-III
# How it was run: as §2
# [16] = test system: ECM6010 ant(2″)-I; experiment: microbe, parasite or virus in culture; assay type: cell-based, Escherichia coli; conditions: Escherichia coli, read-out: Compound MIC on Bacterial Strains: ECM6010 ant(2″)-I
# How it was run: as §2
# [17] = test system: ECM6011 aph(3′)-I; experiment: microbe, parasite or virus in culture; assay type: cell-based, Escherichia coli; conditions: Escherichia coli, read-out: Compound MIC on Bacterial Strains: ECM6011 aph(3′)-I
# How it was run: as §2
# [18] = test system: ECM6009 aac(3)-II; experiment: microbe, parasite or virus in culture; assay type: cell-based, Escherichia coli; conditions: Escherichia coli, read-out: Compound MIC on Bacterial Strains: ECM6009 aac(3)-II
# How it was run: as §2
# [19] = test system: Acinetobacter baumannii (ATCC 19606); experiment: MIC, broth microdilution; conditions: Acinetobacter baumannii, ATCC19606, read-out: Compound MIC on Bacterial Strains: A. baumannii ATCC 19606
# [20] = ATCC29213, read-out: Compound MIC on Bacterial Strains: S. aureus ATCC 29213, QC strain, Table 2
# [21] = ATCC29213, read-out: Compound MIC on Bacterial Strains: Staphylococcus aureus SAM1000 ATCC 29213, Table 5
# [22] = ATCC25922, read-out: Compound MIC on Bacterial Strains: E. coli ATCC 25922
# [23] = ATCC25922, read-out: Compound MIC on Bacterial Strains: ECM6000 ATCC 25922
# [24] = ATCC25922, read-out: Compound MIC on Bacterial Strains: Escherichia coli ECM6000 ATCC 25922
# [25] = ATCC27853, read-out: Compound MIC on Bacterial Strains: P. aeruginosa ATCC 27853
# [26] = ATCC27853, read-out: Compound MIC on Bacterial Strains: Pseudomonas aeruginosa PAM3034 ATCC 27853
Compound,MIC [1],MIC [2],MIC [3],"MIC [4, 20]","MIC [4, 21]",MIC [5],"MIC [6, 22]","MIC [6, 23]","MIC [6, 24]",MIC [7],MIC [8],MIC [10],MIC [11],MIC [12],"MIC [13, 25]","MIC [13, 26]",MIC [14],MIC [15],MIC [16],MIC [17],further results
"CN[C@@H]1[C@@H](O)[C@@H](O[C@@H]2[C@@H](O)[C@H](O[C@H]3O[C@H](CNCCO)CC[C@H]3N)[C@@H](N)C[C@H]2NC(=O)[C@@H](O)CCN)OC[C@]1(C)O [Compound 1, (2S)-4-amino-N-((1R,2S,3S,4R,5S)-5-amino-4-((2R,3R,6S)-3-amino-6-((2-hydroxyethylamino)methyl)tetrahydro-2H-pyran-2-yloxy)-2-((2R,3R,5R)-3,5-dihydroxy-5-methyl-4-(methylamino)tetrahydro-2H-pyran-2-yloxy)-3-hydroxycyclohexyl)-2-hydroxybutanamide]",> 8 µg/mL,1 to 8 µg/mL,> 8 µg/mL,< 1 µg/mL,< 1 µg/mL,1 to 8 µg/mL,< 1 µg/mL,< 1 µg/mL,< 1 µg/mL,< 1 µg/mL,< 1 µg/mL,< 1 µg/mL,< 1 µg/mL,< 1 µg/mL,1 to 8 µg/mL,1 to 8 µg/mL,< 1 µg/mL,1 to 8 µg/mL,< 1 µg/mL,< 1 µg/mL,Histopathology Results After 7 days of Dosing ([9]; 10 mg/kg/day): No Change; Histopathology Results After 14 days of Dosing ([9]; 10 mg/kg/day): No Change; Histopathology Results After 7 days of Dosing ([9]; 30 mg/kg/day): Mild Nephrosis; Histopathology Results After 14 days of Dosing ([9]; 30 mg/kg/day): Moderate to Severe Nephrosis; Histopathology Results After 7 days of Dosing ([9]; 100 mg/kg/day): Severe Nephrosis; Histopathology Results After 14 days of Dosing ([9]; 100 mg/kg/day): 4/4 Died; MIC [18]: < 1 µg/mL; MIC [19]: > 8 µg/mL
"CN[C@@H]1[C@@H](O)[C@@H](O[C@@H]2[C@@H](O)[C@H](O[C@H]3O[C@H](CNCCO)CC[C@H]3N)[C@@H](N)C[C@H]2NC(=O)[C@@H](O)CN)OC[C@]1(C)O [Compound 2, (S)-3-amino-N-((1R,2S,3S,4R,5S)-5-amino-4-((2R,3R,6S)-3-amino-6-((2-hydroxyethylamino)methyl)tetrahydro-2H-pyran-2-yloxy)-2-((2R,3R,4R,5R)-3,5-dihydroxy-5-methyl-4-(methylamino)tetrahydro-2H-pyran-2-yloxy)-3-hydroxycyclohexyl)-2-hydroxypropanamide]",> 8 µg/mL,1 to 8 µg/mL,> 8 µg/mL,< 1 µg/mL,< 1 µg/mL,< 1 µg/mL,< 1 µg/mL,< 1 µg/mL,< 1 µg/mL,< 1 µg/mL,< 1 µg/mL,1 to 8 µg/mL,1 to 8 µg/mL,1 to 8 µg/mL,1 to 8 µg/mL,1 to 8 µg/mL,< 1 µg/mL,< 1 µg/mL,< 1 µg/mL,< 1 µg/mL,Histopathology Results After 7 days of Dosing ([9]; 10 mg/kg/day): Minimal Tubular Eosinophilia;; Histopathology Results After 14 days of Dosing ([9]; 10 mg/kg/day): No change; Histopathology Results After 7 days of Dosing ([9]; 30 mg/kg/day): Minimal Tubular Eosinophilia;; Histopathology Results After 14 days of Dosing ([9]; 30 mg/kg/day): Minimal to Mild Dilatation; Histopathology Results After 7 days of Dosing ([9]; 100 mg/kg/day): Mild Tubular Eosinophila; Histopathology Results After 14 days of Dosing ([9]; 100 mg/kg/day): No Deaths; Moderate to Severe; MIC [18]: < 1 µg/mL; MIC [19]: > 8 µg/mL
"CNC[C@@H]1CCC(N)[C@@H](OC2C(O)C(O[C@H]3OCC(C)(O)[C@H](NC)C3O)[C@H](NC(=O)[C@@H](O)C(O)CN)C[C@@H]2N)O1 (stereo in doubt) [Compound 23, (2S,3R)-4-amino-N-((1R,2S,3S,4R,5S)-5-amino-4-((2R,3R,6S)-3-amino-6-((methylamino)methyl)tetrahydro-2H-pyran-2-yloxy)-2-((2R,3R,4R,5R)-3,5-dihydroxy-5-methyl-4-(methylamino)tetrahydro-2H-pyran-2-yloxy)-3-hydroxycyclohexyl)-2,3-dihydroxybutanamide]",1 to 8 µg/mL,1 to 8 µg/mL,> 8 µg/mL,< 1 µg/mL,1 to 8 µg/mL,1 to 8 µg/mL,< 1 µg/mL,1 to 8 µg/mL,1 to 8 µg/mL,< 1 µg/mL,1 to 8 µg/mL,1 to 8 µg/mL,1 to 8 µg/mL,1 to 8 µg/mL,1 to 8 µg/mL,1 to 8 µg/mL,< 1 µg/mL,1 to 8 µg/mL,1 to 8 µg/mL,1 to 8 µg/mL,MIC [18]: 1 to 8 µg/mL; MIC [19]: > 8 µg/mL
